Measured values from PubChem BioAssay (NCI).
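Cultured in 96-well plates, cells were exposed to test compound for 48 hours across five concentrations. Definition used: TGI = concentration required for complete inhibition of growth.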

The compounds below were run on A549 NSCLC (assay: DTP human tumour cell line panel, 48 h).

Row | Structure (SMILES) | TGI
1 | Cn1c2c([N+](=O)[O-])cccc2c(=O)c2c(O)cc3c(c21)C=CC(C)(C)O3 | > 100 µM
2 | COc1ccc([C@@H]2C[C@@H]3C(=O)OC(=O)[C@@H]3c3c2c2ccccc2n3C)cc1 | > 100 µM

These compounds were tested on CAKI-1 renal (assay: DTP human tumour cell line panel, 48 h).

Row | Structure (SMILES) | TGI
3 | O=C1c2ccccc2C(=O)N1C/C=N/NS(=O)(=O)c1ccc(F)cc1 | > 100 µM
4 | c1ccc2c(c1)c1ccccc1c1n[se]nc21 | > 100 µM
5 | Cn1c2c([N+](=O)[O-])cccc2c(=O)c2c(O)cc3c(c21)C=CC(C)(C)O3 | > 100 µM
6 | COc1ccc([C@@H]2C[C@@H]3C(=O)OC(=O)[C@@H]3c3c2c2ccccc2n3C)cc1 | > 100 µM

Each compound was assayed on UO-31 renal (assay: DTP human tumour cell line panel, 48 h).

Row | Structure (SMILES) | TGI
7 | O=C1c2ccccc2C(=O)N1C/C=N/NS(=O)(=O)c1ccc(F)cc1 | > 100 µM
8 | c1ccc2c(c1)c1ccccc1c1n[se]nc21 | > 100 µM
9 | O=C(c1ccc(Cl)cc1Cl)N(/N=C/C=C/c1ccccc1)c1nnc(-c2ccccc2)c(-c2ccccc2)n1 | > 100 µM
10 | Cn1c2c([N+](=O)[O-])cccc2c(=O)c2c(O)cc3c(c21)C=CC(C)(C)O3 | > 100 µM
11 | COc1ccc([C@@H]2C[C@@H]3C(=O)OC(=O)[C@@H]3c3c2c2ccccc2n3C)cc1 | > 100 µM

What follows are compounds tested on SF-268 CNS (assay: DTP human tumour cell line panel, 48 h).

Row | Structure (SMILES) | TGI
12 | O=C1c2ccccc2C(=O)N1C/C=N/NS(=O)(=O)c1ccc(F)cc1 | > 100 µM
13 | c1ccc2c(c1)c1ccccc1c1n[se]nc21 | > 100 µM
14 | O=C(c1ccc(Cl)cc1Cl)N(/N=C/C=C/c1ccccc1)c1nnc(-c2ccccc2)c(-c2ccccc2)n1 | > 100 µM
15 | Cn1c2c([N+](=O)[O-])cccc2c(=O)c2c(O)cc3c(c21)C=CC(C)(C)O3 | > 100 µM
16 | COc1ccc([C@@H]2C[C@@H]3C(=O)OC(=O)[C@@H]3c3c2c2ccccc2n3C)cc1 | > 100 µM

What follows are compounds tested on XF 498 CNS (assay: DTP human tumour cell line panel, 48 h).

Row | Structure (SMILES) | TGI
17 | O=C1c2ccccc2C(=O)N1C/C=N/NS(=O)(=O)c1ccc(F)cc1 | > 100 µM
18 | c1ccc2c(c1)c1ccccc1c1n[se]nc21 | 77.2 µM
19 | O=C(c1ccc(Cl)cc1Cl)N(/N=C/C=C/c1ccccc1)c1nnc(-c2ccccc2)c(-c2ccccc2)n1 | > 100 µM
20 | Cn1c2c([N+](=O)[O-])cccc2c(=O)c2c(O)cc3c(c21)C=CC(C)(C)O3 | 45.2 µM
21 | COc1ccc([C@@H]2C[C@@H]3C(=O)OC(=O)[C@@H]3c3c2c2ccccc2n3C)cc1 | > 100 µM

What follows are compounds tested on HCT-116 colon (assay: DTP human tumour cell line panel, 48 h).

Row | Structure (SMILES) | TGI
22 | O=C1c2ccccc2C(=O)N1C/C=N/NS(=O)(=O)c1ccc(F)cc1 | > 100 µM
23 | COc1ccc([C@@H]2C[C@@H]3C(=O)OC(=O)[C@@H]3c3c2c2ccccc2n3C)cc1 | > 100 µM

Each compound was assayed on 786-0 renal (assay: DTP human tumour cell line panel, 48 h).

Row | Structure (SMILES) | TGI
24 | O=C1c2ccccc2C(=O)N1C/C=N/NS(=O)(=O)c1ccc(F)cc1 | > 100 µM
25 | c1ccc2c(c1)c1ccccc1c1n[se]nc21 | > 100 µM
26 | O=C(c1ccc(Cl)cc1Cl)N(/N=C/C=C/c1ccccc1)c1nnc(-c2ccccc2)c(-c2ccccc2)n1 | > 100 µM
27 | Cn1c2c([N+](=O)[O-])cccc2c(=O)c2c(O)cc3c(c21)C=CC(C)(C)O3 | > 100 µM
28 | COc1ccc([C@@H]2C[C@@H]3C(=O)OC(=O)[C@@H]3c3c2c2ccccc2n3C)cc1 | > 100 µM

Each compound was assayed on RPMI-8226 leukemia (assay: DTP human tumour cell line panel, 48 h).

Row | Structure (SMILES) | TGI
29 | O=C1c2ccccc2C(=O)N1C/C=N/NS(=O)(=O)c1ccc(F)cc1 | > 100 µM
30 | c1ccc2c(c1)c1ccccc1c1n[se]nc21 | > 100 µM
31 | O=C(c1ccc(Cl)cc1Cl)N(/N=C/C=C/c1ccccc1)c1nnc(-c2ccccc2)c(-c2ccccc2)n1 | > 100 µM
32 | Cn1c2c([N+](=O)[O-])cccc2c(=O)c2c(O)cc3c(c21)C=CC(C)(C)O3 | > 100 µM
33 | COc1ccc([C@@H]2C[C@@H]3C(=O)OC(=O)[C@@H]3c3c2c2ccccc2n3C)cc1 | > 100 µM

What follows are compounds tested on IGROV1 ovarian (assay: DTP human tumour cell line panel, 48 h).

Row | Structure (SMILES) | TGI
34 | O=C1c2ccccc2C(=O)N1C/C=N/NS(=O)(=O)c1ccc(F)cc1 | > 100 µM
35 | c1ccc2c(c1)c1ccccc1c1n[se]nc21 | > 100 µM
36 | O=C(c1ccc(Cl)cc1Cl)N(/N=C/C=C/c1ccccc1)c1nnc(-c2ccccc2)c(-c2ccccc2)n1 | > 100 µM
37 | Cn1c2c([N+](=O)[O-])cccc2c(=O)c2c(O)cc3c(c21)C=CC(C)(C)O3 | > 100 µM
38 | COc1ccc([C@@H]2C[C@@H]3C(=O)OC(=O)[C@@H]3c3c2c2ccccc2n3C)cc1 | > 100 µM

The compounds below were run on OVCAR-4 ovarian (assay: DTP human tumour cell line panel, 48 h).

Row | Structure (SMILES) | TGI
39 | O=C1c2ccccc2C(=O)N1C/C=N/NS(=O)(=O)c1ccc(F)cc1 | > 100 µM
40 | c1ccc2c(c1)c1ccccc1c1n[se]nc21 | > 100 µM
41 | O=C(c1ccc(Cl)cc1Cl)N(/N=C/C=C/c1ccccc1)c1nnc(-c2ccccc2)c(-c2ccccc2)n1 | > 100 µM
42 | Cn1c2c([N+](=O)[O-])cccc2c(=O)c2c(O)cc3c(c21)C=CC(C)(C)O3 | 81 µM
43 | COc1ccc([C@@H]2C[C@@H]3C(=O)OC(=O)[C@@H]3c3c2c2ccccc2n3C)cc1 | > 100 µM

These compounds were tested on NCI-H226 lung (assay: DTP human tumour cell line panel, 48 h).

Row | Structure (SMILES) | TGI
44 | O=C1c2ccccc2C(=O)N1C/C=N/NS(=O)(=O)c1ccc(F)cc1 | > 100 µM
45 | O=C(c1ccc(Cl)cc1Cl)N(/N=C/C=C/c1ccccc1)c1nnc(-c2ccccc2)c(-c2ccccc2)n1 | > 100 µM
46 | COc1ccc([C@@H]2C[C@@H]3C(=O)OC(=O)[C@@H]3c3c2c2ccccc2n3C)cc1 | > 100 µM

What follows are compounds tested on DMS 273 small cell lung (assay: DTP human tumour cell line panel, 48 h).

Row | Structure (SMILES) | TGI
47 | O=C1c2ccccc2C(=O)N1C/C=N/NS(=O)(=O)c1ccc(F)cc1 | > 100 µM
48 | c1ccc2c(c1)c1ccccc1c1n[se]nc21 | > 100 µM
49 | O=C(c1ccc(Cl)cc1Cl)N(/N=C/C=C/c1ccccc1)c1nnc(-c2ccccc2)c(-c2ccccc2)n1 | > 100 µM
50 | Cn1c2c([N+](=O)[O-])cccc2c(=O)c2c(O)cc3c(c21)C=CC(C)(C)O3 | > 100 µM
51 | COc1ccc([C@@H]2C[C@@H]3C(=O)OC(=O)[C@@H]3c3c2c2ccccc2n3C)cc1 | > 100 µM

These compounds were tested on RXF-631 renal (assay: DTP human tumour cell line panel, 48 h).

Row | Structure (SMILES) | TGI
52 | O=C1c2ccccc2C(=O)N1C/C=N/NS(=O)(=O)c1ccc(F)cc1 | > 100 µM
53 | c1ccc2c(c1)c1ccccc1c1n[se]nc21 | > 100 µM
54 | O=C(c1ccc(Cl)cc1Cl)N(/N=C/C=C/c1ccccc1)c1nnc(-c2ccccc2)c(-c2ccccc2)n1 | > 100 µM
55 | Cn1c2c([N+](=O)[O-])cccc2c(=O)c2c(O)cc3c(c21)C=CC(C)(C)O3 | > 100 µM
56 | COc1ccc([C@@H]2C[C@@H]3C(=O)OC(=O)[C@@H]3c3c2c2ccccc2n3C)cc1 | > 100 µM

These compounds were tested on COLO 205 colon (assay: DTP human tumour cell line panel, 48 h).

Row | Structure (SMILES) | TGI
57 | O=C1c2ccccc2C(=O)N1C/C=N/NS(=O)(=O)c1ccc(F)cc1 | > 100 µM
58 | c1ccc2c(c1)c1ccccc1c1n[se]nc21 | > 100 µM
59 | O=C(c1ccc(Cl)cc1Cl)N(/N=C/C=C/c1ccccc1)c1nnc(-c2ccccc2)c(-c2ccccc2)n1 | > 100 µM
60 | Cn1c2c([N+](=O)[O-])cccc2c(=O)c2c(O)cc3c(c21)C=CC(C)(C)O3 | > 100 µM
61 | COc1ccc([C@@H]2C[C@@H]3C(=O)OC(=O)[C@@H]3c3c2c2ccccc2n3C)cc1 | > 100 µM

These compounds were tested on OVCAR-8 ovarian (assay: DTP human tumour cell line panel, 48 h).

Row | Structure (SMILES) | TGI
62 | O=C1c2ccccc2C(=O)N1C/C=N/NS(=O)(=O)c1ccc(F)cc1 | > 100 µM
